This is an account of results in ChEMBL document CHEMBL3507680, “University of Dundee, Gates Library screen for HepG2 cell viability”.

The data set in a line: Human HepG2 cell viability assay in 384 well format. The format is toxicity, cell-based. On the set-up: dose 125 nL, time 70.5 hour; concentration not given beside the values. The settings on record: HepG2 cells, read-out: Inhibition.

Turning to `NC(=O)CN1CCCN(C(=O)c2ccc(SC(F)F)cc2)CC1`, the cytotoxicity at 70.5 h was -6.46%.
On to `NC(=O)CSCC(=O)NCC1CCCC1`, for which the cytotoxicity at 70.5 h is -10.8%.
As for `CC(C)(C)n1ncc(NCC(O)c2ccccc2)c(Cl)c1=O` (configuration not stated), the cytotoxicity at 70.5 h was 25.2%.
The result for `CC1CN(C(=O)Nc2cc(C(F)(F)F)c[nH]c2=O)CCO1` (configuration not stated) reads -8.88%.
As to `CC1(C)CN(C(=O)Nc2cc(C(F)(F)F)c[nH]c2=O)CCO1`, the cytotoxicity at 70.5 h is -6.62%.
The result for `O=C(NCC1CCS(=O)(=O)C1)c1ccc(NC(=O)c2ccco2)cc1` (configuration not stated) reads 26.8%; that for `O=c1n(CCNCc2cccc3ccccc23)nc2ccccn12`, -12.6%.
Consider `CC(C)(C)n1ncc(NCC(O)c2ccccc2C(F)(F)F)c(Cl)c1=O` (configuration not stated), for which the cytotoxicity at 70.5 h turned out to be 23.5%.
The result for `O=c1n(CCNCc2ccc3ccccc3c2)nc2ccccn12` reads -0.105%; that for `CC(C)c1noc(CCNC(=O)NCC2COc3ccccc3O2)n1` (configuration not stated), -11.6%.
Regarding `CCC(C)(C)N(C)CCOc1cccc(S(C)(=O)=O)c1`, the cytotoxicity at 70.5 h was -3.09%.
The result for `CN(C)C(=O)c1cccc(CCNS(C)(=O)=O)c1` reads -2.26%; that for `O=C(NCc1ccccc1OCCO)Nc1ccc2c(c1)CCC2`, 0.688%.
`CCn1nc(C)cc1C(=O)OCCNc1ncnc2ccccc12`: the cytotoxicity at 70.5 h is 27.6%.
Take `CNC(=O)C1CCCCN1C(=O)c1cn(CCOC)c2ccccc12` (configuration not stated): the cytotoxicity at 70.5 h is 0.571%.
The result for `CC(C)N(C)S(=O)(=O)N(C)Cc1cnn(Cc2ccccc2)c1` reads 3.45%; that for `COCCn1cc(C(=O)N2CCCC2c2ccncc2)c2ccccc21` (configuration not stated), -4.2%.
In the case of `CN(C)C(=O)c1cccc(CCNc2ccccc2S(C)(=O)=O)c1`, the cytotoxicity at 70.5 h was -0.957%.
Regarding `COc1c(CNCc2ccccc2Cn2cncn2)c(C)nn1C`, the cytotoxicity at 70.5 h is -1.28%.
For the compound `Cc1ccc(NC2CCN(C(=O)CCCc3ccccn3)CC2)nn1`, the cytotoxicity at 70.5 h was 9.21%.
The result for `CCc1nccn1C1CCCN(C(=O)CCc2nc(C(C)C)no2)C1` (configuration not stated) reads -1.73%; that for `Cc1nn(C)c(Cl)c1C1CCCN1C(=O)c1ccc(N(C)C)nn1` (configuration not stated), -12.9%.
The result for `N#Cc1ccc(N2CCCN(CCCn3cncn3)CC2)cc1` reads -0.762%; that for `CC(C)(CNC(=O)Nc1nccs1)N1CCOCC1`, -6.21%; that for `O=C(c1c[nH]c(=O)c(Cl)c1)N1CCc2ccccc2C1`, 1.04%.
`CCc1ncc(C(=O)NCCNc2ncnc3sccc23)s1`: the cytotoxicity at 70.5 h was 18.2%.
Take `CC(=O)N(C)CC(=O)NC1(c2ccc(Br)cc2)CC1`: the cytotoxicity at 70.5 h is 4.73%.
The result for `CCN(CC)CC(=O)Nc1ccc(-n2ccc(C(N)=O)n2)cc1` reads 25.3%; that for `CC(C)N(C)CC(=O)Nc1ccc(-n2ccc(C(N)=O)n2)cc1`, -2.55%; that for `Cc1cccc(CS(=O)(=O)c2nnc(N3CCOCC3)s2)c1`, 0.983%.
The result for `CS(=O)(=O)CCSC1CCN(c2ccccc2F)C1=O` (configuration not stated) reads -14.2%; that for `CC(=O)N(C)CC(=O)NC1(c2ccc(F)cc2)CCCC1`, -2.78%; that for `O=C(c1cnc(OCC(F)(F)F)c(Cl)c1)N1CCc2ccc(O)cc2C1`, -18.4%.
The result for `Cn1cc(C(=O)CC2CCCN2C(=O)c2ccc3[nH]ncc3c2)cn1` (configuration not stated) reads 30%; that for `Cc1ccc(O)c(C(=O)N2CCCC2CC(=O)c2cnn(C)c2)c1` (configuration not stated), -4.97%; that for `Cc1cc(CC(=O)NCC(O)c2ccc(OC(F)F)cc2)n[nH]1` (configuration not stated), -4.53%.
Turning to `CCc1nc(C2CCCN(C(=O)C3=NN(CC)C(=O)CC3)C2)no1` (configuration not stated), the cytotoxicity at 70.5 h is -13.2%.
The result for `N#Cc1ccc(CN2CCCN(CCCn3cncn3)CC2)cc1` reads 3.01%.
Consider `CC(C)c1n[nH]c(C2CN(Cc3ncc[nH]3)CCO2)n1` (configuration not stated), for which the cytotoxicity at 70.5 h came out at 35.2%.
In the case of `Cc1ccccc1CN(Cc1ccccn1)C(=O)CN(C)C(C)C`, the cytotoxicity at 70.5 h came to 2.63%.
With `c1ccc(NCc2cccc(OCCN3CCOCC3)c2)nc1`, the cytotoxicity at 70.5 h was found to be 6.42%.
The result for `COCCC(=O)N(Cc1ccccn1)Cc1ccccc1C` reads 7.25%; that for `O=c1[nH]nc(SCC2CCCO2)n1C1CC1` (configuration not stated), -6.11%; that for `CS(=O)(=O)Nc1cccc(CNC(=O)CCNC(=O)c2cccs2)c1`, 23.6%.
Consider `COc1cc2c(cc1OC)CN(C(=O)Cn1nc(C)cc1C)CC2`, for which the cytotoxicity at 70.5 h is -5.35%.
The result for `O=C(CN1CCS(=O)(=O)CC1)NC1CCCc2ccccc21` (configuration not stated) reads -7.89%; that for `N#Cc1cn(CCN2CCc3ccccc3C2)c(=O)[nH]c1=O`, 0.215%.
The result for `CS(=O)(=O)Nc1cccc(CNC(=O)c2cccs2)c1` reads 19%.
The result for `CCCc1cc(C(=O)NCCN2C(=O)c3ccccc3C2=O)[nH]n1` reads -8.43%; that for `CS(=O)(=O)NC1CCCN(Cc2ccc(OCc3ccccn3)cc2)C1` (configuration not stated), -1.69%.
Regarding `O=C(NC1CCN(c2cccc(C(F)(F)F)n2)CC1)C1CC1`, the cytotoxicity at 70.5 h stood at 23.1%.
`CC(C(=O)N1CCN(C(=O)c2ccc(F)cc2)CC1)n1ccnc1` (configuration not stated): the cytotoxicity at 70.5 h was -4.23%.
Take `COc1cc2c(cc1OC)CCN(C(=O)Cn1nc(C)cc1C)CC2`: the cytotoxicity at 70.5 h worked out at 2.01%.
The result for `O=C1NCC(C(=O)N(Cc2ccc(C(F)(F)F)cc2)C2CC2)N1` (configuration not stated) reads 23.5%; that for `CS(=O)(=O)NC1CCCN(Cc2ccccn2)C1` (configuration not stated), -1.75%.
The result for `O=C1CC[C@H](C(=O)N(Cc2cccc(Br)c2)C2CC2)N1` reads 2.31%; that for `CC(C)(C)c1n[nH]c(C2CN(Cc3ncc[nH]3)CCO2)n1` (configuration not stated), -0.788%.
The result for `CS(=O)(=O)Cc1ccc(Cl)cc1NCc1cccc(F)c1F` reads 2.24%; that for `Cc1nc(-c2ccc(NCCc3ccc(O)cc3)nc2)[nH]c(=O)c1C`, 3.42%; that for `COC(=O)c1ccc(Cn2nc(C)cc2C)c(F)c1`, -4.1%.
Consider `COC(=O)c1ccc(Cn2nc(C)cc2C)c(OC)c1`, for which the cytotoxicity at 70.5 h is 2.29%.
The result for `Cn1c(C2CC2)nc2cc(NC(=O)C3CCOC3)ccc21` (configuration not stated) reads -4.07%; that for `COc1cc(OC)cc(N2CCC(NCc3cc[nH]n3)C2)c1` (configuration not stated), 40.6%.
The result for `Clc1cccc(N2CCC(NCc3cc[nH]n3)C2)c1` (configuration not stated) reads 3.22%; that for `COCC1CCCN(CCCc2cccc(OC)c2)C1` (configuration not stated), 37.4%; that for `CC(CS(C)(=O)=O)N(C(=O)CCc1ccc(Cl)s1)C1CC1` (configuration not stated), -3.37%.
The result for `CCCc1noc(C(C)S(=O)(=O)Cc2nc(C3CC3)no2)n1` (configuration not stated) reads -2.49%.
As to `CCc1ccc(C(=O)N(CC(F)(F)F)C2CCCOC2)o1` (configuration not stated), the cytotoxicity at 70.5 h was -6.93%.
The result for `CCC(C)NC(=O)CN1CCOCC1` (configuration not stated) reads -5.48%.
The result for `CCc1noc(CS(=O)(=O)Cc2ccccc2Cl)n1` reads -6.3%; that for `O=C(Cc1ccc2c(c1)CCO2)Nc1ccc(-n2cncn2)nc1`, 16.4%.
With `O=C(Nc1ccc(Cl)cn1)C1CCCN(CCc2ccncc2)C1` (configuration not stated), the cytotoxicity at 70.5 h was -1.77%.
The result for `Cc1oc(NC(=O)C(C)N2CCN(C(=O)C3CC3)CC2)c(C#N)c1C` (configuration not stated) reads -1.91%; that for `Cc1oc(NC(=O)C(C)N2CCN(CCO)CC2)c(C#N)c1C` (configuration not stated), -2.61%.
The result for `CC(C)(C)C(=O)Cn1nc(C2CC2)cc(C(F)(F)F)c1=O` reads -0.663%; that for `OCCN1CCC(CNCc2ccc(N3CCCCC3)cc2)CC1`, 1.15%; that for `Cc1cnc(C(=O)N2CCCN(Cc3cnn(C(C)C)c3)CC2)cn1`, 17.6%.
Consider `Cc1nc(C2CCCN2CC(=O)Nc2c(C)nn(C)c2C)no1` (configuration not stated), for which the cytotoxicity at 70.5 h is -3.49%.
The result for `Cc1nc(C)n(CC2CN(CCc3cccs3)CCO2)n1` (configuration not stated) reads -5.27%; that for `O=C(C1CCCC1)N1CCCC1c1nnc2n1CCCCC2` (configuration not stated), 1.94%.
The result for `Cc1cc(F)ccc1NC(=O)NCC(C)N1CCOCC1` (configuration not stated) reads 32.7%; that for `CC1CCCN(C(=O)Nc2ccc(F)c(C(N)=O)c2)C1` (configuration not stated), -1.11%; that for `CCN(CC)C(CNS(=O)(=O)c1ccc(C(N)=O)cc1)c1ccco1` (configuration not stated), -0.105%.
The result for `NC(=O)c1cc(NC(=O)N2CCOCC2)ccc1F` reads 9.19%; that for `CC(CNC(=O)Nc1ccc(F)cc1Br)N1CCOCC1` (configuration not stated), 31.4%.
With `c1ccc2c(N3CCOC(Cn4cccn4)C3)ncnc2c1` (configuration not stated), the cytotoxicity at 70.5 h is -4.3%.
The result for `CSC(C)(C)CNC(=O)NC(c1nnc2n1CCC2)C(C)C` (configuration not stated) reads -3.59%.
The result for `O=C(CC1CN(Cc2ccccc2)CCO1)NCCN1CCOCC1` (configuration not stated) reads 37.5%; that for `Cc1nsc(N2CCCN(C(=O)NCc3cc(C)on3)CC2)n1`, -1.32%; that for `Cc1noc(CNC(=O)N2CCN(c3nc(C)c(C)s3)CC2)n1`, -3.61%.
With `Cc1nc(N2CCN(C(=O)NCc3cscn3)CC2)sc1C`, the cytotoxicity at 70.5 h is -2.92%.
The result for `CC(CNC(=O)Nc1ccc(F)cc1-n1cccc1)N1CCOCC1` (configuration not stated) reads 4.4%.
The result for `Cn1cc(CCNC(=O)N2CCCC(Cc3nccn3C)C2)cn1` (configuration not stated) reads -0.841%; that for `Cn1ccnc1CC1CCCN(C(=O)NCCOc2cccnc2)C1` (configuration not stated), 1.38%.
The result for `CCc1nncn1CCNC(=O)N1CCCC(Cc2nccn2C)C1` (configuration not stated) reads 32.8%.
For the compound `Cc1cc(C)n(CCC(=O)N2CCCC(n3nc(C)nc3C)C2)n1` (configuration not stated), the cytotoxicity at 70.5 h is -6.97%.
The result for `N#CC1(NC(=O)CNCCn2cccn2)CCCCC1` reads -1.06%.
The result for `CCC(CNC1CCN(C(C)=O)CC1)Oc1cccc(C)c1` (configuration not stated) reads -6.04%.
`Cc1sc2nc(C(F)(F)F)nc(N3CCCN(C)CC3)c2c1C`: the cytotoxicity at 70.5 h is 22.1%.
For the compound `Cc1sc2nc(C(F)(F)F)nc(N3CCN(S(C)(=O)=O)CC3)c2c1C`, the cytotoxicity at 70.5 h was -4.32%.
For `CCCc1nc(C)c(C(=O)NC2CCN(C3CC3)C2)s1` (configuration not stated), the cytotoxicity at 70.5 h came to 14.1%.
The result for `COc1ccc(C(C)NCc2c[nH]nc2C)cc1Br` (configuration not stated) reads -6.07%.
